{"source": "patent US10174331B2", "about": "“Methods and compositions for nuclease-mediated targeted integration of transgenes” (Sangamo BioSciences, Inc., priority 2012, dated 2019)", "key": {"[1]": {"tested_on": "scutella of wheat cv. Bobwhite MPB26RH and cv. Clearfield Janz", "experiment": "Basal tolerance to IMAZAMOX at callus induction stage", "format": "cell-based, Triticum aestivum", "protocol": "A series of experiments were performed to determine optimal selection conditions for regenerating AHAS edited wheat plants. These experiments were based on testing the basal tolerance to IMAZAMOX™ of the donor wheat line cv. Bobwhite MPB26RH(S653/S653 genotype) at the callus induction, plant regeneration and rooting stages of an established wheat transformation system. Similar experiments were performed to determine the basal tolerance and resistance of cv. Clearfield Janz genotypes carrying the different doses of the S653N mutation; i.e., plants with N653/N653 and S653/S653 genotypes.\nThe basal tolerance of the donor wheat line cv. Bobwhite MPB26RH and basal resistance of cv. Clearfield Janz (N653/N653) genotype to IMAZAMOX® at the callus induction stage was determined as follows: Scutella of immature zygotic embryos from each wheat line were isolated as described previously and placed in 10 cm PETRI™ dishes containing CIM medium supplemented with 0, 50, 100, 200, 300, 400 and 500 nM IMAZAMOX® respectively. Twenty scutella were placed in each PETRI™ dish. A total of 60 scutella from each of the donor wheat line cv. Bobwhite MPB26RH and cv. […] After incubation at 24° C. in the dark for 4 weeks, the amount of somatic embryogenic callus formation (SEC) at each IMAZAMOX® concentration was recorded. […]"}, "[2]": {"tested_on": "wheat cv. Bobwhite MPB26RH and cv. Clearfield Janz", "experiment": "Basal tolerance to IMAZAMOX at plant regeneration stage", "format": "in vivo, Triticum aestivum", "protocol": "The basal tolerance of the donor wheat line cv. Bobwhite MPB26RH to IMAZAMOX® at the plant regeneration stage was determined as follows: Scutella of immature zygotic embryos from the donor wheat line were isolated as described previously and placed in 10 cm PETRI™ dishes containing CIM medium. Somatic embryogenic callus was allowed to form by incubating at 24° C. in the dark for 4 weeks. The SEC was transferred to 10 cm PETRI™ dishes containing DRM medium supplemented with 0, 100, 200, 300, 400, 500 and 1000 nM IMAZAMOX® respectively. Twenty CIM were placed in each PETRI™ dish. A total of 60 CIM were tested for basal tolerance response at each IMAZAMOX® concentration. After incubation for 2 weeks at 24° C. under a 16/8 (light/dark) hour photoperiod in a growth room, the regeneration response was recorded.\nThe basal tolerance of the cv. Clearfield Janz (S653/S653) genotype and basal resistance of the cv. Clearfield Janz (N653/N653) genotype to IMAZAMOX® at the plant regeneration stage was determined using a modified approach, as cv. […] Seed for each cv. Clearfield Janz genotype was germinated using the aseptic approach described above for producing wheat mesophyll protoplasts. […] After incubation for 3 weeks at 24° C. under a 16/8 (light/dark) hour photoperiod in a growth room, the growth response was recorded. […]"}, "[3]": {"tested_on": "scutella of wheat cv. Bobwhite MPB26RH", "experiment": "Basal tolerance to sulfometuron methyl at callus induction stage", "format": "cell-based, Triticum aestivum", "conditions": "100 nM, 4 weeks", "protocol": "A series of experiments were performed to determine optimal selection conditions for regenerating wheat plants expressing the AHAS(P197S) mutation conferring tolerance to sulfonylurea class herbicides. These experiments were based on testing the basal tolerance of the wild-type donor wheat line cv. Bobwhite MPB26RH (P197/P197 genotype, which confers susceptibility to sulfonylureas) at the callus induction, plant regeneration and rooting stages of an established wheat transformation system. Similar experiments were performed to determine the basal tolerance of transgenic cv. Bobwhite MPB26RH events that had randomly integrated T-DNA expressing the AHAS(P197) mutation, which confers tolerance to sulfonylurea selection agents.\nThe basal tolerance of the wild-type donor wheat line to sulfometuron methyl at the callus induction stage was determined as follows: Scutella of immature zygotic embryos were isolated, as previously described, and placed in 10 cm PETRI™ dishes containing CIM medium supplemented with 0, 100, 500, 1000, 1500 and 2000 nM sulfometuron methyl, respectively. Twenty scutella were placed in each PETRI™ dish. A total of 60 scutella were tested at each sulfometuron methyl concentration. After incubation at 24° C. in the dark for 4 weeks, the amount of somatic embryogenic callus formation (SEC) at each sulfometuron methyl concentration was recorded. […]"}, "[4]": {"tested_on": "wheat cv. Bobwhite MPB26RH", "experiment": "Basal tolerance to sulfometuron methyl at plant regeneration stage", "format": "in vivo, Triticum aestivum", "conditions": "wild-type cv. Bobwhite MPB26RH; 2000 nM; 2 weeks", "protocol": "The basal tolerance of the wild-type donor wheat line to sulfometuron methyl at the plant regeneration stage was determined as follows: Scutella of immature zygotic embryos from the donor wheat line were isolated and placed in 10 cm PETRI™ dishes containing CIM medium. Somatic embryogenic callus was allowed to form by incubating at 24° C. in the dark for 4 weeks. The SEC was transferred to 10 cm PETRI™ dishes containing DRM medium supplemented with 0, 100, 500, 1000, 1500, 2000, 2500 and 3000 nM sulfometuron methyl, respectively. Twenty CIM were placed in each PETRI™ dish. A total of 60 CIM were tested for basal tolerance response at each sulfometuron methyl concentration. After incubation for 2 weeks at 24° C. under a 16/8 (light/dark) hour photoperiod in a growth room, the regeneration response was recorded."}, "[5]": {"tested_on": "wheat cv. Bobwhite MPB26RH, wild-type and AHAS(P197S) transgenic events", "experiment": "Basal tolerance to sulfometuron methyl at plant rooting stage", "format": "in vivo, Triticum aestivum", "conditions": "wild-type donor wheat line; concentrations higher than 400 nM; 3 weeks", "protocol": "The basal tolerance of the wild-type donor wheat line to sulfometuron methyl at the plant rooting stage was determined as follows: Scutella of immature zygotic embryos were isolated and placed in 10 cm PETRI™ dishes containing CIM medium. Somatic embryogenic callus was allowed to form by incubating at 24° C. in the dark for 4 weeks. The SEC was transferred to 10 cm PETRI™ dishes containing DRM medium and incubated for 2 weeks at 24° C. under a 16/8 (light/dark) hour photoperiod to allow plant regeneration to take place. Regenerated plants were transferred to 10 cm PETRI™ dishes containing RM medium supplemented with 0, 100, 200, 250, 300, 400, 500, 1000 and 2000 nM sulfometuron methyl, respectively. Ten regenerated plants were placed in each PETRI™ dish. […] After incubation for 3 weeks at 24° C. under a 16/8 (light/dark) hour photoperiod in a growth room, the root formation response was recorded.\nThe basal tolerance of transgenic wheat events with randomly integrated, low-copy (≤3) T-DNA expressing the AHAS(P197S) mutation to sulfometuron methyl at the plant rooting stage was determined as follows: Four independent transgenic events were randomly selected and multiplied in vitro by sub-culturing on multiplication medium. […] After incubation for 2 weeks at 24° C. under a 16/8 (light/dark) hour photoperiod in a growth room, the root formation response was recorded."}}}
{"smiles": "COCc1cnc(C2=NC(C)(C(C)C)C(=O)N2)c(C(=O)O)c1", "note": "(stereo not shown) [IMAZAMOX]", "values": [{"measurement": "reduction of SEC formation compared to untreated samples", "setting": "[1]; cv. Bobwhite MPB26RH, 100 nM, 4 weeks", "value": "about 70%"}, {"measurement": "callus formation relative to the untreated control", "setting": "[1]; cv. Clearfield Janz (N653/N653), any concentration tested (50-500 nM)", "value": "unaffected"}, {"measurement": "reduction of plant regeneration compared to untreated samples", "setting": "[2]; cv. Bobwhite MPB26RH, 200 nM, 2 weeks", "value": "about 80%"}, {"measurement": "concentration that had to be exceeded before plant growth was strongly suppressed", "setting": "[2]; cv. Clearfield Janz (N653/N653), 3 weeks", "value": "exceeded 2,000 nM"}]}
{"smiles": "COC(=O)c1ccccc1S(=O)(=O)NC(=O)Nc1nc(C)cc(C)n1", "note": "[sulfometuron methyl]", "values": [{"measurement": "reduction of SEC formation compared to untreated samples", "setting": "[3]", "value": "about 70%"}, {"measurement": "reduction of plant regeneration compared to untreated samples", "setting": "[4]", "value": "about 80%"}, {"measurement": "root formation compared to untreated samples", "setting": "[5]", "value": "severely inhibited"}]}
